# Measured values taken from patent US20090263381A1, “COMBINATION OF DEHYDROEPIANDROSTERONE OR DEHYDROEPIANDROSTERONE-SULFATE WITH AN ANTI-IGE ANTIBODY FOR TREATMENT OF ASTHMA OR CHRONIC OBSTRUCTIVE PULMONARY DISEASE” (priority 2003, published 2009).
# “And” between values parts separate entries of the source, which are not always exact repeats. Equal values may be shown once. Read-outs that look alike come from different tables or passages of the source.
# What was measured:
# [1] = Nakagawa et al. 1981, 1982; cited from earlier work
# [2] = Particle size of jet-milled and spray-dried anhydrous DHEA-S (Malvern Mastersizer X, light microscope); type: physicochemical; settings: spray dried material, two batches
# Procedure: Approximately 1 g sample was passed through the jet mill, once, and approximately 2 g sample were passed through the jet mill twice. […] The resulting solution was sonicated for 3 minutes and appeared fully dispersed. The dispersed solutions were tested on a Malvern Mastersizer X with a small volume sampler (SVS) attachment. One sample of dispersed material was tested 5 times. The median particle size or D (v, 0.5) of unmilled material was 52.56 μm and the % RSD (relative standard deviation) was 7.61 for the 5 values. The D (v, 0.5) for a single pass through the jet mill was 3.90 μm and the % RSD was 1.27, and the D (v, 0.5) from a double pass through the jet mill 3.25 μm and the % RSD was 3.10.
# The solution was spray-dried with a B-191 Mini Spray-Drier (Buchi, Flawil, Switzerland) with an inlet temperature of 55° C., outlet temperature of 40° C., at 100% aspirator, at 10% pump, nitrogen flow at 40 mbar and spray flow at 600 units. The spray-dried product was suspended in hexane and Span85 surfactant added to reduce agglomeration. The dispersions were sonicated with cooling for 3-5 minutes for complete dispersion and the dispersed solutions tested on a Malvern Mastersizer X with a Small Volume Sampler (SVS) attachment. […] Visual examination by light microscope of the dispersions of each batch confirmed that spray drying produced small respirable size particles. […]
# Intracellular adenosine = assay: In vivo effect on adenosine levels in various rat tissues; parameters: species or system Fischer 344 rats
# Procedure: Folinic acid (50 mg/kg) was administered intraperitoneally once daily for fourteen days. […] Hearts were removed from animals and flash frozen in liquid nitrogen with 10 s of death. Liver and lungs were removed en bloc and flash frozen with […]. Brain tissue was subsequently dissected.
# [3] = for solubility: range of triplicates
# From the text: The suspensions are then filtered through a 0.2 micron syringe filter and immediately diluted for HPLC analysis. To prepare refrigerated samples, the syringes and filters are stored in the refrigerator for at least one hour before use.
# [4] = 0.12% NaCl (20 mM Cl^-)
# Procedure: The nebulizer is filled with 5 mL of solution and nebulization is continued until the output became visually insignificant (4½ to 5 min.). Nebulizer solutions are tested using a California Instruments AS-6 6-stage impactor with a USP throat. The impactor is run at 30 L/min for 8 s to collect a sample following one minute of nebulization time. At all other times during the experiment, the aerosol is drawn through the by-pass collector at approximately 33 L/min. The collection apparatus, nebulizer, and impactor are rinsed with mobile phase and assayed by HPLC. […] This volume is selected as the practical upper limit for use in a clinical study.
# [5] = HPLC analysis of drug degradation during jet milling; type: physicochemical; settings: HPLC peak area versus unmilled standard; single-pass and double-pass
# Procedure: Two vials (A; single-pass; 150 mg) and (B double-pass; 600 mg) of the micronized drug were available for determining drug degradation during jet milling micronization. […] The chromatographic peak area for the HPLC assay of the unmilled drug standard solution (10 mg/ml) gave a value of 23,427. […] The chromatographic peak areas for vials A and B were 11,979 and 11,677, respectively.
# late asthmatic response = assay: Late asthmatic response in patients dosed with DHEA-S; type: in vivo; settings: patients after five days of dosing
# [6] = Short-term solution stability of DHEA-S formulation; type: physicochemical
# Procedure: Aliquots of this solution are filled into clear glass vials and stored at RT (24-26° C.) and at 40° C. The samples are checked daily for DHEA-S content, DHEA content, and appearance. For each time point, duplicate samples are withdrawn and diluted from each vial. […] The study is stopped on day three. […] The solution should easily be stable for the day of reconstitution in a clinical trial. The following section describes the aerosol properties of this formulation.
# [7] = Solid-state stability with and without lactose (DHEA formation by HPLC); type: physicochemical; settings: 1 week at 50° C., neat and lactose blend
# From the text: These conditions were used to stress the formulation in order to predict its long-term stability results. […] The primary degradant is DHEA. […] The materials on accelerated storage become more cohesive with time as evidenced by clumping during sample weighing for chemical analysis. […] This is a considerable disadvantage since lactose is the most commonly used inhalation excipient for dry powder formulations. Continuing with the virtually anhydrous form would mean limiting formulations to neat powder or undertaking more comprehensive safety studies to use a novel excipient.
# HT-29 SF cells [8] = assay: DHEA effect on cell growth (Coulter counter); type: cell-based, human
# HT-29 SF cells [9] = assay: Reversal of DHEA effect on cell cycle by medium supplements; type: cell-based, human; settings: 25 FM DHEA, with increasing exposure time
# HT-29 SF cells [10] = assay: DHEA effect on cell cycle distribution (flow cytometry); type: cell-based, human; settings: 25, 50 or 200 μM DHEA; 24, 48, 72 hours
# Procedure: Cells were plated at 10^5/60-mm dish in duplicate. […] Cultures were trypsinized following 0, 24, 48, or 74 hours and fixed and stained using a modification of a procedure of Bauer et al., Cancer Res. 46, 3173-3178 (1986). Briefly, cells were collected by centrifugation and resuspended in cold phosphate-buffered saline. Cells were fixed in 70% ethanol, washed, and resuspended in phosphate-buffered saline.
# After 24, 48, and 72 hours, cells were harvested, fixed in ethanol, and stained with propidium iodide, and the DNA content/cell was determined by flow cytometric analysis. The percentage of cells in G1, S, and G2M phases was calculated using the Cellfit cell cycle analysis program. S phase is marked by a quadrangle for clarity. Representative histograms from duplicate determinations are shown. The experiment was repeated three times.
compound,measurement,setting,value
C[C@]12CC[C@H](OS(=O)(=O)[O-])CC1=CC[C@@H]1[C@@H]2CC[C@]2(C)C(=O)CC[C@@H]12.[Na+] [Anhydrous DHEA-S],solid-state properties (in words),[1],low crystallinity and is very hygroscopic
same,mean particle size (Malvern Mastersizer X),[2],5.07±0.70 μm and 6.66±0.91 μm
same,mean particle size (light microscope),[2],2.4 μm and 2.0 μm
"Nc1nc(=O)c2c([nH]1)NCC(CNc1ccc(C(=O)N[C@@H](CCC(=O)O)C(=O)O)cc1)N2C=O (mixture of isomers) [Folinic Acid, Folinic acid]",effect on adenosine levels when administered alone,"Intracellular adenosine; rats, folinic acid 50 mg/kg alone, all organs studied",increase in adenosine levels for all organs studied
same,effect of coadministration on steroid-mediated adenosine depletion,"Intracellular adenosine; rats, folinic acid 50 mg/kg coadministered with DHEA or methyltestosterone",completely abrogated steroid-mediated adenosine depletion
sodium dehydroepiandrostenone sulfate [DHEA-S],solubility,"[3]; 0.9% NaCl, refrigerated (7-8° C.)",1100 to 1300 µg/mL
same,Ksp,"[3]; 15° C., interpolated versus reciprocal of absolute temperature",~1316 mM^2
same,equilibrium constant Ksp,"[3]; refrigerated (7-8° C.), slope of solubility versus reciprocal sodium cation concentration",665 mM^2
same,solubility,"[3]; ~25° C., 0% NaCl",16500 to 17400 µg/mL
same,solid-state properties (in words),[1],most stable and crystalline as the dihydrate form
same,highest solution concentration that will not precipitate during nebulization,[4],approximately 7.5 mg/mL
same,degradation of the drug during jet milling micronization,[5],no detectable degradation
same,reduction of the late asthmatic response,late asthmatic response,33%
same,stability of nebulizer formulation,[6]; 7.5 mg/mL of DHEA-S in 0.12% NaCl,stable for at least one day at RT
same,appearance of solution on storage,"[6]; 10 mg/mL in 0.12% NaCl, 40° C. (accelerated condition)",became cloudy after two days of storage
CC12CCC3C(CC=C4CC(OS(=O)(=O)[O-])CCC43C)C1CCC2=O.[Na+] (stereo not drawn) [DHEA-S dihydrate],DHEA generated on storage (in words),[7],virtually no DHEA generated
"C[C@]12CC[C@H](O)CC1=CC[C@@H]1[C@@H]2CC[C@]2(C)C(=O)CC[C@@H]12 [DHEA, 3β-hydroxyandrost-5-en-17-one]",effect on tissue adenosine (in words),"Intracellular adenosine; rat, in vivo",multi-organ depletion of adenosine
same,effect on growth of HT-29 cells (in words),"HT-29 SF cells [8]; 0-200 μM, 0-72 hours",time- and dose-dependent inhibition of growth
same,exposure time after which cell number was reduced compared to controls,HT-29 SF cells [8]; 12.5 μM DHEA,72 h
same,exposure time after which cell number was reduced compared to controls,HT-29 SF cells [8]; 25 μM DHEA,48 h
same,exposure time after which cell number was reduced compared to controls,HT-29 SF cells [8]; 50 μM DHEA,48 h
same,exposure time after which cell number was reduced compared to controls,HT-29 SF cells [8]; 200 μM DHEA,24 h
same,proportion of cells in S phase,HT-29 SF cells [9],progressively reduced the proportion of cells in S phase
same,"cell cycle effect (overall, in words)",HT-29 SF cells [10],G1 block in HT-29 SF cells in a time- and dose-dependent manner
